Calls of active or inactive are those of the source. The rule behind the calls is not given here.
Assays:
[1] = Total plasma clearance in male Sprague-Dawley rat at 2 mg/kg, iv measured up to 24 hrs by LC/MS-MS analysis; assay type: ADME, organism-based
[2] = Oral bioavailability in female Sprague-Dawley rat at 10 mg/kg measured up to 24 hrs by LC/MS-MS analysis; assay type: ADME, organism-based; conditions: in vivo
[3] = Acute toxicity in SPF Kunming mouse assessed as body weight at 500 mg/kg, po administered as single dose measured at day 14 (reference value: 34.7g); assay type: organism-based; conditions: in vivo
A549 [4] = test: Induction of autophagy in human A549 cells assessed as autophagic bodies formation at 2.5 uM incubated for 48 hrs by transmission electron microscopy; assay type: functional, cell-based
A549 [5] = test: Inhibition of colony formation in human A549 cells incubated for 10 days by crystal violet staining based assay; assay type: functional, cell-based
[6] = Subacute toxicity in SPF Kunming mouse assessed as behavioural abnormalities at 2000 mg/kg, po administered once a day for 14 days; assay type: organism-based; conditions: in vivo, 336 h
[7] = Subacute toxicity in SPF Kunming mouse assessed as liver morphological changes at 2000 mg/kg, po administered once a day for 14 days by H and E staining based microscopic analysis; assay type: organism-based; conditions: in vivo, 336 h
[8] = Acute toxicity in SPF Kunming mouse assessed as body weight at 1000 mg/kg, po administered as single dose measured at day 7 (reference value: 30.2g); assay type: organism-based; conditions: in vivo
[9] = target: Eukaryotic translation initiation factor 4E (Homo sapiens) (UniProt P06730); test: Inhibition of eIF4E phosphorylation in human A549 cells assessed as decrease in cyclin D1 level at 1 to 5 uM incubated for 48 hrs by western blot analysis; assay type: cell-based
Eukaryotic translation initiation factor 4E (Homo sapiens), sequence (P06730 whole entry): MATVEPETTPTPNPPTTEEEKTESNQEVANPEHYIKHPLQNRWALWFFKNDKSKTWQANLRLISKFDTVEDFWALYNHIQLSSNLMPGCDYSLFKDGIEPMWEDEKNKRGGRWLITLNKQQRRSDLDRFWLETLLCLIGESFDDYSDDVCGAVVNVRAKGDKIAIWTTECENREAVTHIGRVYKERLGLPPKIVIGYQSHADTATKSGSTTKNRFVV

A549 [10] = test: Induction of autophagy in human A549 cells assessed as change in LC3 expression at 1 to 5 uM incubated for 48 hrs by Western blot analysis; assay type: functional, cell-based
[11] = Subacute toxicity in SPF Kunming mouse assessed as body weight at 2000 mg/kg, po administered once a day for 7 days (reference value: 28.4g); assay type: organism-based; conditions: in vivo, 168 h
[12] = Cmax in female Sprague-Dawley rat at 10 mg/kg, po measured up to 24 hrs by LC/MS-MS analysis; assay type: ADME, organism-based; set-up: dose 10 mg/kg, route oral; conditions: in vivo
A549 [13] = test: In vivo inhibition of PI3K/Akt/mTOR in human A549 cells xenografted in athymic nude mouse assessed as decrease in phosphorylation of 4EBP1 at 25 to 50 mg/kg, ip administered once daily for 21 days by Western blot analysis; assay type: functional, organism-based
A549 [14] = test: Antiproliferative activity against human A549 cells assessed as inhibition of cell growth incubated for 48 hrs by MTT assay; assay type: functional, cell-based; conditions: A549, 48 h
[15] = Subacute toxicity in SPF Kunming mouse assessed as kidney morphological changes at 2000 mg/kg, po administered once a day for 14 days by H and E staining based microscopic analysis; assay type: organism-based; conditions: in vivo, 336 h
[16] = Tmax in female Sprague-Dawley rat at 2 mg/kg, iv measured up to 24 hrs by LC/MS-MS analysis; assay type: ADME, organism-based; conditions: in vivo
[17] = Cmax in male Sprague-Dawley rat at 2 mg/kg, iv measured up to 24 hrs by LC/MS-MS analysis; assay type: ADME, organism-based; set-up: dose 2 mg/kg, route intravenous; conditions: in vivo
Caco-2 = test: Antiproliferative activity against human Caco2 cells assessed as inhibition of cell growth incubated for 48 hrs by MTT assay; assay type: functional, cell-based; conditions: Caco-2, 48 h
[18] = Toxicity in athymic nude mouse xenografted with human A549 cells assessed as effect on lung morphological changes at 25 to 50 mg/kg, ip administered once daily for 21 days by H and E staining based assay; assay type: organism-based; conditions: in vivo, 504 h
A549 [19] = test: Induction of autophagy in human A549 cells assessed as change in ULK1 expression at 1 to 5 uM incubated for 48 hrs by Western blot analysis; assay type: functional, cell-based
[20] = Acute toxicity in SPF Kunming mouse assessed as body weight at 2000 mg/kg, po administered as single dose measured at day 14 (reference value: 34.7g); assay type: organism-based; conditions: in vivo
HUVEC = test: Antiproliferative activity against human HUVEC cells assessed as inhibition of cell growth incubated for 48 hrs by MTT assay; assay type: cell-based
[21] = Total plasma clearance in female Sprague-Dawley rat at 2 mg/kg, iv measured up to 24 hrs by LC/MS-MS analysis; assay type: ADME, organism-based
[22] = Toxicity in athymic nude mouse xenografted with human A549 cells assessed as effect on heart morphological changes at 25 to 50 mg/kg, ip administered once daily for 21 days by H and E staining based assay; assay type: organism-based; conditions: in vivo, 504 h
[23] = Half life in male Sprague-Dawley rat at 10 mg/kg, po measured up to 24 hrs by LC/MS-MS analysis; assay type: ADME, organism-based; conditions: in vivo
[24] = Cmax in female Sprague-Dawley rat at 2 mg/kg, iv measured up to 24 hrs by LC/MS-MS analysis; assay type: ADME, organism-based; set-up: dose 2 mg/kg, route intravenous; conditions: in vivo
[25] = Acute toxicity in SPF Kunming mouse assessed as body weight at 1000 mg/kg, po administered as single dose measured at day 14 (reference value: 34.7g); assay type: organism-based; conditions: in vivo
[26] = target: Eukaryotic translation initiation factor 4E (Homo sapiens) (UniProt P06730); test: Inhibition of eIF4E phosphorylation in human A549 cells assessed as decrease in c-myc expression at 1 to 5 uM incubated for 48 hrs by western blot analysis; assay type: cell-based
A549 [27] = test: In vivo inhibition of eIF4E in human A549 cells xenografted in athymic nude mouse assessed as decrease in phosphorylation of eIF4E at 25 to 50 mg/kg, ip administered once daily for 21 days by Western blot analysis; assay type: functional, organism-based
A549 [28] = test: Induction of ROS generation in human A549 cells at 1 to 5 uM incubated for 48 hrs by DCFH-DA staining based FACS analysis; assay type: functional, cell-based
A549 [29] = test: Induction of apoptosis in human A549 cells assessed as nuclear shrinkage and chromatin condensation at 1 to 5 uM incubated for 48 hrs by Hoechst 33258 staining based fluorescence microscopy; assay type: functional, cell-based
A549 [30] = test: Induction of apoptosis in human A549 cells assessed as decrease in Bcl2 level at 1 to 5 uM incubated for 48 hrs by Western blot analysis; assay type: functional, cell-based
[31] = Toxicity in athymic nude mouse xenografted with human A549 cells assessed as effect on liver morphological changes at 25 to 50 mg/kg, ip administered once daily for 21 days by H and E staining based assay; assay type: organism-based; conditions: in vivo, 504 h
[32] = Acute toxicity in SPF Kunming mouse assessed as body weight at 500 mg/kg, po administered as single dose measured at day 7 (reference value: 30.2g); assay type: organism-based; conditions: in vivo
[33] = AUC (0 to 24 hrs) in male Sprague-Dawley rat at 2 mg/kg, iv measured up to 24 hrs by LC/MS-MS analysis; assay type: ADME, organism-based; set-up: dose 2 mg/kg, time < 24 hr, route intravenous; conditions: in vivo
[34] = Toxicity in athymic nude mouse xenografted with human A549 cells assessed as changes in body weight at 25 to 50 mg/kg, ip administered once daily for 21 days; assay type: organism-based; conditions: in vivo, 504 h
[35] = Volume of distribution in steady state in male Sprague-Dawley rat at 2 mg/kg, iv measured up to 24 hrs by LC/MS-MS analysis; assay type: ADME, organism-based; conditions: in vivo, read-out: Vdss
A549 [36] = test: In vivo inhibition of PI3K/Akt/mTOR signalling pathway in human A549 cells xenografted in athymic nude mouse assessed as decrease in phosphorylation of Akt at 25 to 50 mg/kg, ip administered once daily for 21 days by Western blot analysis; assay type: functional, organism-based

Which results are given for Fc1ccc(/C=N/Nc2nc(-c3ccc(C(F)(F)F)cc3)cs2)cc1F?
clearance [1]: 0.03 L/h/kg; bioavailability [2]: 31%; Activity [3]: 33.3 g; Activity (A549 [4]): Active; inhibition (A549 [5]): Dose-dependent effect; Activity [6]: Non-Toxic; Activity [7]: Non-Toxic; Activity [8]: 30.5 g; inhibition [9]: Active; Activity (A549 [10]): Active; Activity [11]: 28 g; Cmax [12]: 0.96 µM; inhibition (A549 [13]): Active; IC50 (A549 [14]): 2.61 µM; Activity [15]: Non-Toxic; Tmax [16]: 2 h; Cmax [17]: 149 µM; IC50 (Caco-2): 14.6 µM; Activity [18]: Non-Toxic; Activity (A549 [19]): Active; Activity [20]: 35 g; IC50 (HUVEC): 79.5 µM; clearance [21]: 0.04 L/h/kg; Activity [22]: Non-Toxic; half-life [23]: 1.27 h; Cmax [24]: 126 µM; Activity [25]: 34.9 g; inhibition [26]: Active; inhibition (A549 [27]): Active; Activity (A549 [28]): Active; Activity (A549 [29]): Active; Activity (A549 [30]): Active; Activity [31]: Non-Toxic; Activity [32]: 29.1 g; AUC(0-t) at 24 h [33]: 155 µM·h; Activity [34]: Non-Toxic; Vd [35]: 0.12 L/kg; inhibition (A549 [36]): Active

Reference: ChEMBL document CHEMBL4393720, “Design, synthesis and biological evaluation of bromophenol-thiazolylhydrazone hybrids inhibiting the interaction of translation initiation factors eIF4E/eIF4G as multifunctional agents for cancer treatment” (Eur J Med Chem, 2019)
